In brackets after ≈: the same amount, converted by molar mass. Structures can show the parent of a compound that is named as a salt.
Assays:
Format in all cases: cell-based
Proteus 966 = assay: agar dilution MIC, Proteus 966; settings: Mueller-Hinton agar, 10^5 CFU per point, about 18 hrs, 37° C., read-out: Minimum Inhibitory Concentrations
Protocol: (§1) The antibacterial activity of the compounds according to the present invention was evaluated against pathogenic strains of recent clinical isolation, both gram positive and gram negative. Minimum inhibitory concentration (MIC) were determined by the diluition method in agar, using a multipoint inoculator (Denley Techn. Ltd. England). As a culture medium Mueller-Hinton agar (DIFCO) in Petri capsules was used.
(§2) The bacterial inoculum, originating from an overnight broth was inoculated by a multipoint and was standardized in such a way as to obtain 10^5 colony forming units (CFU) per point.
(§3) After about 18 hrs incubation in a thermostat at 37° C., the bacterial growth was evaluated on each plate.

Staphylococcus 7 = assay: agar dilution MIC, Staphylococcus 7; settings: Mueller-Hinton agar, 10^5 CFU per point, about 18 hrs, 37° C., read-out: Minimum Inhibitory Concentrations
Protocol: as §1, §2, §3

Staphylococcus 29 = assay: agar dilution MIC, Staphylococcus 29; settings: Mueller-Hinton agar, 10^5 CFU per point, about 18 hrs, 37° C., read-out: Minimum Inhibitory Concentrations
Protocol: as §1, §2, §3

E. coli 15 = assay: agar dilution MIC, E. coli 15; settings: Escherichia coli, Mueller-Hinton agar, 10^5 CFU per point, about 18 hrs, 37° C., read-out: Minimum Inhibitory Concentrations
Protocol: as §1, §2, §3

E. coli 963 = assay: agar dilution MIC, E. coli 963; settings: Escherichia coli, Mueller-Hinton agar, 10^5 CFU per point, about 18 hrs, 37° C., read-out: Minimum Inhibitory Concentrations
Protocol: as §1, §2, §3

Klebsiella 4 = assay: agar dilution MIC, Klebsiella 4; settings: Mueller-Hinton agar, 10^5 CFU per point, about 18 hrs, 37° C., read-out: Minimum Inhibitory Concentrations
Protocol: as §1, §2, §3

Klebsiella 5 = assay: agar dilution MIC, Klebsiella 5; settings: Mueller-Hinton agar, 10^5 CFU per point, about 18 hrs, 37° C., read-out: Minimum Inhibitory Concentrations
Protocol: as §1, §2, §3

Salmonella 9 = assay: agar dilution MIC, Salmonella 9; settings: Mueller-Hinton agar, 10^5 CFU per point, about 18 hrs, 37° C., read-out: Minimum Inhibitory Concentrations
Protocol: as §1, §2, §3

Salmonella 10 = assay: agar dilution MIC, Salmonella 10; settings: Mueller-Hinton agar, 10^5 CFU per point, about 18 hrs, 37° C., read-out: Minimum Inhibitory Concentrations
Protocol: as §1, §2, §3

Enterobacter 41 = assay: agar dilution MIC, Enterobacter 41; settings: Mueller-Hinton agar, 10^5 CFU per point, about 18 hrs, 37° C., read-out: Minimum Inhibitory Concentrations
Protocol: as §1, §2, §3

Enterobacter 2653 = assay: agar dilution MIC, Enterobacter 2653; settings: Mueller-Hinton agar, 10^5 CFU per point, about 18 hrs, 37° C., read-out: Minimum Inhibitory Concentrations
Protocol: as §1, §2, §3

Citrobacter 118 = assay: agar dilution MIC, Citrobacter 118; settings: Mueller-Hinton agar, 10^5 CFU per point, about 18 hrs, 37° C., read-out: Minimum Inhibitory Concentrations
Protocol: as §1, §2, §3

Proteus 25 = assay: agar dilution MIC, Proteus 25; settings: Mueller-Hinton agar, 10^5 CFU per point, about 18 hrs, 37° C., read-out: Minimum Inhibitory Concentrations
Protocol: as §1, §2, §3

Citrobacter 120 = assay: agar dilution MIC, Citrobacter 120; settings: Mueller-Hinton agar, 10^5 CFU per point, about 18 hrs, 37° C., read-out: Minimum Inhibitory Concentrations
Protocol: as §1, §2, §3

Staphylococcus 27 = assay: agar dilution MIC, Staphylococcus 27; settings: Mueller-Hinton agar, 10^5 CFU per point, about 18 hrs, 37° C., read-out: Minimum Inhibitory Concentrations
Protocol: as §1, §2, §3

Pseudomonas 19 = assay: agar dilution MIC, Pseudomonas 19; settings: Mueller-Hinton agar, 10^5 CFU per point, about 18 hrs, 37° C., read-out: Minimum Inhibitory Concentrations
Protocol: as §1, §2, §3

Pseudomonas 2437 = assay: agar dilution MIC, Pseudomonas 2437; settings: Mueller-Hinton agar, 10^5 CFU per point, about 18 hrs, 37° C., read-out: Minimum Inhibitory Concentrations
Protocol: as §1, §2, §3

Compound	MIC (Proteus 966)	MIC (Staphylococcus 7)	MIC (Staphylococcus 29)	MIC (E. coli 15)	MIC (E. coli 963)	MIC (Klebsiella 4)	MIC (Klebsiella 5)	MIC (Salmonella 9)	MIC (Salmonella 10)	MIC (Enterobacter 41)	MIC (Enterobacter 2653)	MIC (Citrobacter 118)	MIC (Proteus 25)	MIC (Citrobacter 120)	MIC (Staphylococcus 27)	MIC (Pseudomonas 19)	MIC (Pseudomonas 2437)
CCNCC1CCN(c2c(F)cc3c(=O)c(C(=O)O)cn4c3c2OCC4C)C1 (stereo not drawn) [E.P. 0106489 ex. 20, reference compound]	2 µg/mL (≈ 5.14 µM)	0.25 µg/mL (≈ 0.642 µM)	0.5 µg/mL (≈ 1.28 µM)	0.5 µg/mL (≈ 1.28 µM)	2 µg/mL (≈ 5.14 µM)	0.5 µg/mL (≈ 1.28 µM)	2 µg/mL (≈ 5.14 µM)	1 µg/mL (≈ 2.57 µM)	1 µg/mL (≈ 2.57 µM)	1 µg/mL (≈ 2.57 µM)	0.25 µg/mL (≈ 0.642 µM)	4 µg/mL (≈ 10.3 µM)	1 µg/mL (≈ 2.57 µM)	2 µg/mL (≈ 5.14 µM)	0.25 µg/mL (≈ 0.642 µM)	64 µg/mL (≈ 164 µM)	128 µg/mL (≈ 329 µM)
CCNCC1CCN(c2c(F)cc3c(=O)c(C(=O)O)cn4c3c2SCC4C)C1 (stereo not drawn) [ex. 1, 10-3-[(ethylamino)methyl]1-pyrrolidinyl]-9 fluoro-2,3-dihydro-3-methyl-7-oxo-7H-pyrido [1,2,3 de][1,4]benzothiazine-6-carboxylic acid hydrochloride]	4 µg/mL	0.12 µg/mL	0.25 µg/mL	0.5 µg/mL	2 µg/mL	0.25 µg/mL	2 µg/mL	0.5 µg/mL	0.5 µg/mL	0.5 µg/mL	0.25 µg/mL	2 µg/mL	4 µg/mL	4 µg/mL	0.25 µg/mL	32 µg/mL	64 µg/mL
CCNCC1CCN(c2c(F)cc3c(=O)c(C(=O)O)cn4c3c2SCC4)C1 (stereo not drawn) [ex. 2, 10-[3[(ethylamino)methyl]-1-pyrrolidinyl]-9-fluoro-2,3-dihydro-7-oxo-7H-pyr ido [1,2,3 de][1,4]benzothiazine-6-carboxylic acid hydrochloride]	8 µg/mL	1 µg/mL	2 µg/mL	2 µg/mL	8 µg/mL	2 µg/mL	8 µg/mL	4 µg/mL	2 µg/mL	4 µg/mL	1 µg/mL	8 µg/mL	8 µg/mL	8 µg/mL	8 µg/mL	128 µg/mL	> 128 µg/mL

— patent US5066802A, “Process for preparing pyrido-benzothiazine derivatives having high antibacterial activity and high bioavailability to tissues” (Mediolanum Farmaceutici Srl., priority 1987, dated 1991)
